Measurements as given in ChEMBL document CHEMBL4421722, “Inhibitors of protein prenyltransferases” (2013).

organism: Rattus norvegicus; assay: Inhibition of rat recombinant geranylgeranyltransferase type I expressed in Escherichia coli assessed as residual enzyme activity for geranylgeranylation of K-Ras4B at 50 uM incubated for 30 mins in presence of [3H]GGPP by scintillation counting assay relative to control

| Structure (SMILES) | Activity [%] |
| --- | --- |
| Cc1ccc(S(=O)(=O)N2[C@@H](c3ccc(Br)cc3)C(C(=O)O)=CC[C@H]2c2cccs2)cc1 | 71.2 |
| Cc1ccc(S(=O)(=O)N2[C@@H](c3ccc(F)cc3)C(C(=O)O)=CC[C@H]2c2cccs2)cc1 | 62.3 |
| C=CCS[C@@H]1C[C@@H](c2ccccc2F)N(S(=O)(=O)c2ccc(C)cc2)C[C@H]1C(=O)O | 53.1 |
| COc1cccc([C@@H]2CC=C(C(=O)O)[C@H](c3ccc(Cl)cc3)N2S(=O)(=O)c2ccc(C)cc2)c1 | 54.1 |
| Cc1ccc([C@@H]2C[C@@H](SCc3ccccc3)[C@H](C(=O)O)CN2S(C)(=O)=O)cc1 | 81.8 |
| CCc1ccc([C@@H]2C=CCCN2S(=O)(=O)c2ccc(C)cc2)cc1 | 99.5 |
| Cc1ccc(S(=O)(=O)N2C[C@@H](C(=O)O)[C@H](SCC(C)C)C[C@H]2c2ccccc2F)cc1 | 56.8 |
| Cc1ccc(S(=O)(=O)N2[C@@H](c3cccc(F)c3)C(C(=O)O)=CC[C@H]2c2ccc(C(C)C)cc2)cc1 | 72.8 |
| Cc1ccc([C@@H]2CC=C(C(=O)O)[C@H](c3ccc(Br)cc3)N2S(=O)(=O)c2ccc(Cl)cc2)cc1 | 69.5 |
| COc1cccc([C@@H]2CC=C(C(=O)O)[C@H](c3ccc(C(C)(C)C)cc3)N2S(=O)(=O)c2ccc(C)cc2)c1 | 95.8 |
| CCOc1ccc([C@@H]2CC=C(C(=O)O)[C@H](c3ccc(C)cc3)N2S(=O)(=O)c2ccc(C)cc2)cc1 | 63.2 |
| Cc1ccc(S(=O)(=O)N2C[C@@H](C(=O)O)[C@H](SCCC(C)C)C[C@H]2c2ccc3c(c2)OCO3)cc1 | 77.4 |
| CCCCCCS[C@@H]1C[C@@H](c2cccc(Cl)c2)N(S(=O)(=O)c2ccc(C)cc2)C[C@H]1C(=O)O | 77.3 |
| Cc1ccc(S(=O)(=O)N2[C@@H](c3cccc(Br)c3)C(C(=O)O)=CC[C@H]2c2ccc(F)cc2)cc1 | 72.2 |
| COc1cccc([C@@H]2C[C@@H](SCc3ccc(Cl)cc3)[C@H](C(=O)O)CN2S(=O)(=O)c2ccc(C)cc2)c1 | 34.4 |
| COc1ccc([C@@H]2C[C@@H](SCC(C)C)[C@H](C(=O)O)CN2S(=O)(=O)c2ccccc2)cc1 | 70.2 |
| Cc1ccc(S(=O)(=O)N2[C@@H](c3ccc(Cl)cc3)C(C(=O)O)=CC[C@H]2c2cccs2)cc1 | 75.6 |
| COc1ccc([C@@H]2CC=C(C(=O)O)[C@H](c3ccc(C)cc3)N2S(=O)(=O)c2ccc(C)cc2)cc1OC | 89.3 |
| CCCS[C@@H]1C[C@@H](c2cccc(OC)c2)N(S(=O)(=O)c2ccc(C)cc2)C[C@H]1C(=O)O | 73.9 |
| Cc1ccc([C@H]2C(C(=O)O)=CC[C@@H](c3ccc(Cl)cc3)N2S(=O)(=O)c2ccc(Cl)cc2)cc1 | 53.9 |
| COc1ccc(S[C@@H]2C[C@@H](c3cccc(Br)c3)N(S(=O)(=O)c3ccc(C)cc3)C[C@H]2C(=O)O)cc1 | 81.4 |
| COc1ccc([C@@H]2C[C@@H](SC3CCCC3)[C@H](C(=O)O)CN2S(=O)(=O)c2ccc(C)cc2)cc1 | 91.5 |
| Cc1ccc(S(=O)(=O)N2[C@@H](c3cccc(Cl)c3)C(C(=O)O)=CC[C@H]2c2ccccc2)cc1 | 71.3 |
| Cc1ccc(S(=O)(=O)N2[C@@H](c3ccc(Cl)cc3)C(C(=O)O)=CC[C@H]2c2cccc(Br)c2)cc1 | 68.1 |
| Cc1ccc([C@H]2C(C(=O)O)=CC[C@@H](c3ccccc3F)N2S(=O)(=O)c2ccc(C)cc2)cc1 | 92.9 |
| Cc1ccc(S(=O)(=O)N2[C@@H](c3cccc(Cl)c3)C(C(=O)O)=CC[C@H]2c2ccc(C#N)cc2)cc1 | 70.9 |

| Structure (SMILES) | Activity [%] |
| --- | --- |
| Cc1ccc([C@H]2C(C(=O)O)=CC[C@@H](c3cccc(Br)c3)N2S(=O)(=O)c2ccc(C)cc2)cc1 | 67.4 |
| COc1ccc([C@@H]2CC=C(C(=O)O)[C@H](c3ccc(Cl)cc3)N2S(=O)(=O)c2ccc(Cl)cc2)cc1 | 72.6 |
| Cc1ccc([C@H]2C(C(=O)O)=CC[C@@H](c3ccc4c(c3)OCO4)N2S(=O)(=O)c2ccc(C)cc2)cc1 | 75.7 |
| Cc1ccc(S(=O)(=O)N2[C@@H](c3cccc(F)c3)C(C(=O)O)=CC[C@H]2c2ccc(C#N)cc2)cc1 | 88.3 |
| CCOc1ccc([C@@H]2CC=C(C(=O)O)[C@H](c3ccc(Cl)cc3)N2S(=O)(=O)c2ccc(C)cc2)cc1 | 71.6 |
| CS(=O)(=O)N1[C@@H](c2ccc(Cl)cc2)C(C(=O)O)=CC[C@H]1c1ccccc1 | 82.1 |
| CCCCCS[C@@H]1C[C@@H](c2cccc(Cl)c2)N(S(=O)(=O)c2ccc(C)cc2)C[C@H]1C(=O)O | 84.6 |
| Cc1ccc([C@@H]2C[C@@H](Sc3ccccc3)[C@H](C(=O)O)CN2S(=O)(=O)c2ccccc2)cc1 | 92 |
| CCCCCCS[C@@H]1C[C@@H](c2ccc(OC)c(OC)c2)N(S(=O)(=O)c2ccc(C)cc2)C[C@H]1C(=O)O | 97.2 |
| COc1cccc([C@@H]2C[C@@H](SCc3ccc(C(C)(C)C)cc3)[C@H](C(=O)O)CN2S(=O)(=O)c2ccc(C)cc2)c1 | 39 |
| COc1ccc([C@@H]2C[C@@H](SCCC(C)C)[C@H](C(=O)O)CN2S(=O)(=O)c2ccccc2)cc1 | 96.7 |
| C=CCS[C@@H]1C[C@@H](c2ccccc2)N(S(=O)(=O)c2ccc(C)cc2)C[C@H]1C(=O)O | 98.9 |
| CC(=O)C1=CC[C@@H](c2ccccc2F)N(S(=O)(=O)c2ccc(C)cc2)C1 | 80.8 |
| Cc1ccc(S(=O)(=O)N2[C@@H](c3cccc(C)c3)C(C(=O)O)=CC[C@H]2c2ccccc2F)cc1 | 62.8 |
| Cc1ccc([C@@H]2C[C@@H](Sc3ccccc3)[C@H](C(=O)O)CN2S(=O)(=O)c2ccc(C)cc2)cc1 | 63.2 |
| COc1ccc([C@@H]2C[C@@H](SCc3ccc(Cl)cc3)[C@H](C(=O)O)CN2S(=O)(=O)c2ccc(C)cc2)cc1OC | 69.1 |
| CCOc1ccc([C@@H]2C[C@@H](Sc3ccc(OC)cc3)[C@H](C(=O)O)CN2S(=O)(=O)c2ccc(C)cc2)cc1 | 79.1 |
| CCCS[C@@H]1C[C@@H](c2ccc(C)cc2)N(S(=O)(=O)c2ccccc2C)C[C@H]1C(=O)O | 99.4 |
| CCCCCS[C@@H]1C[C@@H](c2ccc3c(c2)OCO3)N(S(=O)(=O)c2ccc(C)cc2)C[C@H]1C(=O)O | 66 |
| COc1ccc([C@@H]2C[C@@H](SCCC(C)C)[C@H](C(=O)O)CN2S(=O)(=O)c2ccc(Cl)cc2)cc1 | 81.4 |
| Cc1ccc(S(=O)(=O)N2[C@@H](c3ccc(Cl)cc3)C(C(=O)O)=CC[C@H]2c2ccc(C#N)cc2)cc1 | 73.1 |
| CCOc1ccc([C@@H]2CC=C(C(=O)O)[C@H](c3cccc(Cl)c3)N2S(=O)(=O)c2ccc(C)cc2)cc1 | 78.9 |
| CCOc1ccc([C@@H]2CC=C(C(=O)O)[C@H](c3cccc(F)c3)N2S(=O)(=O)c2ccc(C)cc2)cc1 | 87.5 |
| Cc1ccc(S(=O)(=O)N2C[C@@H](C(=O)O)[C@H](SCc3ccc(C(C)(C)C)cc3)C[C@H]2c2ccc3c(c2)OCO3)cc1 | 59.3 |
| COc1ccc([C@@H]2CC=C(C(=O)O)[C@H](c3cccc(Cl)c3)N2S(=O)(=O)c2ccccc2C)cc1 | 66.1 |
| Cc1ccc([C@@H]2C[C@@H](SCCC(C)C)[C@H](C(=O)O)CN2S(=O)(=O)c2ccccc2C)cc1 | 75.2 |

| Structure (SMILES) | Activity [%] |
| --- | --- |
| CCc1ccc([C@@H]2CC=C(C(=O)O)[C@H](c3cccc(Cl)c3)N2S(=O)(=O)c2ccc(C)cc2)cc1 | 73.6 |
| C=CCS[C@@H]1C[C@@H](c2cccc(OC)c2)N(S(=O)(=O)c2ccc(C)cc2)C[C@H]1C(=O)O | 75.1 |
| Cc1ccc(S(=O)(=O)N2[C@@H](c3cccc(Cl)c3)C(C(=O)O)=CC[C@H]2c2ccc(C(C)C)cc2)cc1 | 63.1 |
| Cc1ccc(S(=O)(=O)N2[C@@H](c3ccc(Br)cc3)C(C(=O)O)=CC[C@H]2c2ccc(C#N)cc2)cc1 | 70.6 |
| Cc1ccc(S[C@@H]2C[C@@H](c3ccc(C)cc3)N(S(C)(=O)=O)C[C@H]2C(=O)O)cc1 | 108 |
| COc1ccc(S[C@@H]2C[C@@H](c3ccc(OC)cc3)N(S(=O)(=O)c3ccccc3C)C[C@H]2C(=O)O)cc1 | 82.2 |
| COc1ccc(S[C@@H]2C[C@@H](c3cccc(Cl)c3)N(S(=O)(=O)c3ccc(C)cc3)C[C@H]2C(=O)O)cc1 | 93.3 |
| CCOc1ccc([C@@H]2CC=C(C(=O)O)[C@H](c3cccc(Br)c3)N2S(=O)(=O)c2ccc(C)cc2)cc1 | 78.4 |
| Cc1ccc(S(=O)(=O)N2[C@@H](c3ccc(Cl)cc3)C(C(=O)O)=CC[C@H]2c2ccccc2F)cc1 | 58.2 |
| Cc1ccc(S(=O)(=O)N2[C@@H](c3ccc(F)cc3)C(C(=O)O)=CC[C@H]2c2ccc(F)cc2)cc1 | 66.8 |
| COc1ccc([C@@H]2CC=C(C(=O)O)[C@H](c3ccc(C(C)(C)C)cc3)N2S(=O)(=O)c2ccc(Cl)cc2)cc1 | 68.5 |
| Cc1ccc(S(=O)(=O)N2C[C@@H](C(=O)O)[C@H](SCCC(C)C)C[C@H]2c2ccccc2F)cc1 | 58.4 |
| CC(=O)C1=CC[C@@H](c2ccccc2)N(S(=O)(=O)c2ccc(C)cc2)C1 | 98.8 |
| Cc1ccc([C@@H]2CC=C(C(=O)O)[C@H](c3cccc(Cl)c3)N2S(=O)(=O)c2ccc(Cl)cc2)cc1 | 8.4 to 60 |
| Cc1ccc(S(=O)(=O)N2[C@@H](c3ccc(F)cc3)C(C(=O)O)=CC[C@H]2c2cccc(C)c2)cc1 | 71.2 |
| CC(=O)C1=CC[C@@H](c2ccc(Cl)cc2)N(S(=O)(=O)c2ccccc2C)C1 | 91.9 |
| CCS[C@@H]1C[C@@H](c2ccc3c(c2)OCO3)N(S(=O)(=O)c2ccc(C)cc2)C[C@H]1C(=O)O | 91.5 |
| Cc1ccc(S[C@@H]2C[C@@H](c3ccc(C)cc3)N(S(=O)(=O)c3ccc(C)cc3)C[C@H]2C(=O)O)cc1 | 62.4 |
| Cc1ccc(S(=O)(=O)N2[C@@H](c3cccc(Br)c3)C(C(=O)O)=CC[C@H]2c2ccccc2F)cc1 | 71.2 |
| CCCCCCS[C@@H]1C[C@@H](c2ccccc2)N(S(=O)(=O)c2ccc(C)cc2)C[C@H]1C(=O)O | 77.5 |
| CC(=O)C1=CC[C@@H](c2ccc(C(C)C)cc2)N(S(=O)(=O)c2ccc(C)cc2)C1 | 105 |
| CS(=O)(=O)N1[C@@H](c2ccc(Br)cc2)C(C(=O)O)=CC[C@H]1c1ccccc1 | 83.6 |
| Cc1ccc([C@H]2C(C(=O)O)=CC[C@@H](c3ccc(Cl)cc3)N2S(=O)(=O)c2ccccc2C)cc1 | 61.6 |
| Cc1ccc([C@@H]2CC=C(C(=O)O)[C@H](c3cccc(F)c3)N2S(=O)(=O)c2ccc(Cl)cc2)cc1 | 54.5 |
| Cc1ccc([C@@H]2CC=C(C(=O)O)[C@H](c3cccc(F)c3)N2S(C)(=O)=O)cc1 | 75 |
